Laboratory results as given in patent US4110465A, “7-Amino and 7-alkanoylamino 2-oxo-3-phenylindolines” (Eli Lilly and Company, priority 1977, dated 1978).

Tests used:
[1] = tested on: collagen-induced platelet aggregation; test: collagen-induced platelet aggregation (P.A.) inhibition after oral dosing; format: in vivo, guinea pigs; settings: 2 doses at time zero and 2 hours later, blood removed 60 minutes after last dose, 0.05 ml. of 1:45 collagen dilution
Procedure: Certain of the compounds of this invention are also platelet aggregation inhibitors and the results of testing for this activity are also included in Table I. The platelet aggregation test used involves the effect of a drug upon collagen-induced platelet aggregation using the method of Hermann et al., Proc. Soc. Exp. Biol. Med. 136, 548 (1972). According to this procedure, 300-400 g. guinea pigs are used and the compound is administered by the oral route in 2 doses, at time zero and again 2 hours later, at a series of graded dose levels to groups of 4 pigs each. One group is maintained as a control group. Blood is removed by heart puncture 60 minutes after the last dose, and a platelet-rich plasma prepared therefrom. A stock collagen solution is prepared by solubilizing bovine Achilles tendon with acetic acid. The stock solution contains 0.25 percent collagen, has a pH of 2.8 and is kept under refrigeration. […] (Activity was determined by computor printout with significance at the 95 percent confidence level being attained at about the 50 percent inhibition level). In Table 1, column 1 gives the name of the compound, column 2, the ED50 for erythema blocking calculated as set forth above and column 3, the lowest active dose in the platelet aggregation test.

[2] = tested on: erythema produced by an ultra-violet light source on guinea pig skin; test: UV-light-induced erythema blocking on guinea pig skin (anti-inflammatory activity); format: in vivo, albino guinea pigs; settings: Cavia porcellus; oral, suspension in 1 percent aqueous sodium carboxymethylcellulose; groups of 4 guinea pigs; obtained directly or by extrapolation; read-out: ED50 for erythema blocking (dose producing 50 percent inhibition of the erythemic response)
Procedure: The compounds of this invention are anti-inflammatory and anti-thrombotic agents. […] Int. Pharmacodyn, 116, 261 (1958). In this procedure, albino guinea pigs weighing 225-300 gms. are shaved on the back and chemically depilated 18 to 20 hours before initiation of the test procedures. Animals in groups of 4 are given predetermined dosages of the drug under test with one group being maintained as a control group. The drug is administered by the oral route as a suspension in 1 percent aqueous sodium carboxymethylcellulose. The control animals receive only the suspending medium. After having being given the drug or suspension medium only, each group of animals is exposed to a high-intensity ultra-violet light for a predetermined period of time, the ultra-violet light being placed in contact with the depilated skin area on the animals' back. A gummed paper reinforcement is affixed to the lamp lens to provide an unexposed area of contrast for grading the light-produced erythema.
Beginning one hour after exposure and thereafter an half-hour intervals for another 1.5 hours, a trained observer grades erythema using an arbitrary scoring system based upon the degree of contrast and redness formed. […] The following scoring system is used:
Total scores from each treatment group of four guinea pigs are compared to the control treatment, and the percent inhibition calculated as follows: [formula] […]

Compound	P.A., lowest active dose in the platelet aggregation test (active = about 50% inhibition of collagen-induced aggregation) [1] [mg/kg × 2]	ED50 [2] [mg/kg]
Nc1cccc2c1NC(=O)C2c1ccccc1 (stereo not shown) [2-oxo-3-phenyl-7-aminoindoline]	100	10.2
CC(=O)Nc1cccc2c1NC(=O)C2c1ccccc1 (stereo not shown) [N-(2-oxo-3-phenyl-7-indolinyl)-acetamide, N-(2-oxo-3-phenyl-7-indolinyl)acetamide]	3.12	20
